Measurements as given in article PMC11204923, “Marine Cytotoxin Santacruzamate A Derivatives as Potent HDAC1-3 Inhibitors and Their Synergistic Anti-Leukemia Effects with Venetoclax” (Marine Drugs, 2024).

Key:
Assay type in all cases: biochemical
[1] = target: T1, HDAC1 (Homo sapiens, UniProt Q13547); assay: In vitro HDAC inhibition fluorescence assay, HDAC1; settings: for inhibition at 0.01 µM: 10 nM; for inhibition at 0.01 µM / inhibition at 0.1 µM: read-out: Inhibition Rate of HDAC1 (%); for inhibition at 0.1 µM: 100 nM
T1 construct: purchased BPS Bioscience
Description: (§1) All of the HDAC enzymes were purchased from BPS Bioscience. In vitro HDAC inhibition assays were conducted as previously described. In brief, 20 μL of recombinant HDAC enzyme solution (HDAC1-9, 11) was mixed with various concentrations of the tested compound (20 μL). […] After incubation at 37 °C for 2 h, the catalysis was stopped by the addition of 10 μL of developer containing 30 mg/mL trypsin and 6 μM trichostatin A (TSA). Then, 30 min later, the fluorescence intensity was measured using a microplate reader at excitation and emission wavelengths of 360 and 460 nm, respectively. The inhibition ratios were calculated from the fluorescence intensity readings of tested wells relative to those of control wells, and the IC50 curves and values were determined by GraphPad Prism 6.0, using the “log(inhibitor) vs. normalized response-variable slope” function.

[2] = target: T2, HDAC2 (Homo sapiens, UniProt Q92769); assay: In vitro HDAC inhibition fluorescence assay, HDAC2
T2 construct: purchased BPS Bioscience
Description: as §1

[3] = target: T3, HDAC3 (Homo sapiens, UniProt O15379); assay: In vitro HDAC inhibition fluorescence assay, HDAC3; settings: for inhibition at 0.01 µM: 10 nM; for inhibition at 0.01 µM / inhibition at 0.1 µM: read-out: Inhibition Rate of HDAC3 (%); for inhibition at 0.1 µM: 100 nM
T3 construct: purchased BPS Bioscience
Description: as §1

T3 sequence (O15379 whole entry): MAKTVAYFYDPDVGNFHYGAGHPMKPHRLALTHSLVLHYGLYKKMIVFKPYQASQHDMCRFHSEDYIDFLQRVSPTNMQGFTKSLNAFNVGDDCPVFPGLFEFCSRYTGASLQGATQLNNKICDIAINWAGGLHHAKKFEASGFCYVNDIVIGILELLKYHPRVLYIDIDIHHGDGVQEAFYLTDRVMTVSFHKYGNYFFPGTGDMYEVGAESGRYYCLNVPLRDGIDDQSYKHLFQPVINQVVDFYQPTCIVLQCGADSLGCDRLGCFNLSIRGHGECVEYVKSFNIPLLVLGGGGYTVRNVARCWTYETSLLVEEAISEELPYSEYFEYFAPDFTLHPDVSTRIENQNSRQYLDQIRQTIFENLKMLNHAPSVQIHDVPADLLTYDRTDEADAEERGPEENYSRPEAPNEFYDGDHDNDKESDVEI
T3 sequence (Q9Y618 395-489 partner limits assumed): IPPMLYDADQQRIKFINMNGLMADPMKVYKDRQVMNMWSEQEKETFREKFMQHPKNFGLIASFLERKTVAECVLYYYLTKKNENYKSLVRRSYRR
T1 sequence (Q13547 whole entry): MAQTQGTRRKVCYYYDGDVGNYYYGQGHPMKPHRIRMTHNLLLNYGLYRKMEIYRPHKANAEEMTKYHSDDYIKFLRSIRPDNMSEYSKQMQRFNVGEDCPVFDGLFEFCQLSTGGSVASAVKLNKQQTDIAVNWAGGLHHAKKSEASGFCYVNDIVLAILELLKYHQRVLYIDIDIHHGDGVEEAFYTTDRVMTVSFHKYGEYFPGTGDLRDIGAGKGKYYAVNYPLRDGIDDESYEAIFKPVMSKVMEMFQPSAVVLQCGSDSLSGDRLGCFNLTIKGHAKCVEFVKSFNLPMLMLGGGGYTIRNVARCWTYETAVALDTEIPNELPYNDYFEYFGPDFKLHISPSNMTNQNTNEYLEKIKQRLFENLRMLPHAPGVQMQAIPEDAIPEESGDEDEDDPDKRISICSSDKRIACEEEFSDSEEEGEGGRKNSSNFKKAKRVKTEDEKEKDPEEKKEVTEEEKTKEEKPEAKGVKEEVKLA
T2 sequence (Q92769 whole entry): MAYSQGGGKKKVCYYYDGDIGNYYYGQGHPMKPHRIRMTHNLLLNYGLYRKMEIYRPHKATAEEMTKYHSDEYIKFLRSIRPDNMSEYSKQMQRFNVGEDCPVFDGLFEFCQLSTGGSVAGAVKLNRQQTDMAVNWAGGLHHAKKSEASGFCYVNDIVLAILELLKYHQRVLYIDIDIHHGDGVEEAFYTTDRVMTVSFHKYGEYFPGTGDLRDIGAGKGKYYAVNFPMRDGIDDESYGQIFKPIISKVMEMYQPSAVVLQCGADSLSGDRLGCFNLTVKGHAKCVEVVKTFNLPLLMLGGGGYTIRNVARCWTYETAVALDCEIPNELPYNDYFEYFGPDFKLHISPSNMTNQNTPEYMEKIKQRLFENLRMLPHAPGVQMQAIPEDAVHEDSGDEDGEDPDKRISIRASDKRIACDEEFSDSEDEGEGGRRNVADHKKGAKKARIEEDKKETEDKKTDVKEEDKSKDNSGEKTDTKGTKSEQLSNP

Row | IC50 [1] [µM] | inhibition at 0.01 µM [1] [%] | inhibition at 0.1 µM [1] [%] | IC50 [2] [µM] | IC50 [3] [µM] | inhibition at 0.01 µM [3] [%] | inhibition at 0.1 µM [3] [%] | Compound
1 |  | 9.8 ± 0.4 | 32.7 ± 1.2 |  |  | 3.2 ± 10.6 | 48.8 ± 1.1 | CCCNNC(=O)CCCCCCCCNC(=O)Cc1ccccc1 [Compound 14f, N-(9-Oxo-9-(2-propylhydrazineyl)nonyl)-2-phenylacetamide]
2 |  | 31.3 | 71.2 ± 0.9 |  |  | 25.7 ± 1.3 | 60.7 ± 0.5 | CCCNNC(=O)C=Cc1ccc(CNc2cccc3ccccc23)cc1 [Compound 25f, 3-(4-((Naphthalen-1-ylamino)methyl)phenyl)-N′-propylacrylohydrazide]
3 |  | 1.5 ± 1.5 | 27.2 ± 2.8 |  |  | 4.1 ± 9.9 | 38.1 ± 0.8 | CCCNNC(=O)C=Cc1ccc(C(=O)N2CCc3cc(Br)ccc3C2)cc1 [Compound 19c, 3-(4-(6-Bromo-1,2,3,4-tetrahydroisoquinoline-2-carbonyl)phenyl)-N′-propylacrylohydrazide]
4 | 0.0965 ± 0.0011 | 14.2 ± 1.5 | 60.7 ± 0.7 | 0.224 ± 0.0194 | 0.0082 ± 0.0009 | 49.2 ± 0.9 | 80.4 ± 0.7 | CCCNNC(=O)C=Cc1ccc(CNc2ccccc2)cc1 [Compound 25a, 3-(4-((Phenylamino)methyl)phenyl)-N′-propylacrylohydrazide]
5 |  | -1.4 ± 0.5 | 38.2 ± 2.3 |  |  | -0.4 ± 3.4 | 34.8 ± 1.2 | CCCNNC(=O)C=Cc1ccc(C(=O)N2CCc3ccc(Br)cc3C2)cc1 [Compound 19d, 3-(4-(7-Bromo-1,2,3,4-tetrahydroisoquinoline-2-carbonyl)phenyl)-N′-propylacrylohydrazide]
6 |  | -6.8 ± 2.1 | 14.4 ± 2.4 |  |  | 16.1 ± 3.3 | 54.4 ± 0.7 | CCCNNC(=O)CCCCCNC(=O)Cc1ccccc1 [Compound 14c, N-(6-Oxo-6-(2-propylhydrazineyl)hexyl)-2-phenylacetamide]
7 |  | 1.9 ± 3.7 | 43.2 ± 0.1 |  |  | 21.2 ± 1.5 | 76.8 ± 0.4 | CCCNNC(=O)CCCCCCNC(=O)Cc1ccccc1 [Compound 14d, N-(7-Oxo-7-(2-propylhydrazineyl)heptyl)-2-phenylacetamide]
8 |  | -9.04 ± 0.1 | 7.7 ± 2.1 |  |  | 16.6 ± 3.2 | 45.2 ± 1.1 | CCCNNC(=O)CCCCNC(=O)Cc1ccccc1 [Compound 14b, N-(5-Oxo-5-(2-propylhydrazineyl)pentyl)-2-phenylacetamide]
9 |  | -4.6 ± 2.1 | -0.4 ± 1.7 |  |  | -1.1 ± 2.3 | 18.3 ± 0.5 | CCCNNC(=O)C=Cc1ccc(C(=O)N2CCc3ccccc3C2)cc1 [Compound 19b, N′-Propyl-3-(4-(1,2,3,4-tetrahydroisoquinoline-2-carbonyl)phenyl)acrylohydrazide]
10 |  | -7 ± 2.6 | 2.3 ± 2.4 |  |  | 2.4 ± 2.9 | 18.2 ± 3.3 | CCCNNC(=O)CCCNC(=O)Cc1ccccc1 [Compound 14a, N-(4-Oxo-4-(2-propylhydrazineyl)butyl)-2-phenylacetamide]
11 |  | 8.1 ± 0.3 | 39.9 ± 0.6 |  |  | 37.4 ± 0.1 | 78.2 ± 0.5 | CCCNNC(=O)C=Cc1ccc(C(=O)NC2Cc3ccccc3C2)cc1 [Compound 19a, N-(2,3-Dihydro-1H-inden-2-yl)-4-(3-oxo-3-(2-propylhydrazineyl)prop-1-en-1-yl)benzamide]
12 |  | 8.8 ± 3.7 | 51.6 ± 0.9 |  |  | 23.1 ± 0.1 | 71.5 ± 0.7 | CCCNNC(=O)CCCCCCCNC(=O)Cc1ccccc1 [Compound 14e, N-(8-Oxo-8-(2-propylhydrazineyl)octyl)-2-phenylacetamide]
13 | 0.101 ± 0.027 | 9.3 ± 2.3 | 61.7 ± 1.1 | 0.314 ± 0.0367 | 0.013 ± 0.0064 | 62.5 ± 0.4 | 86.9 ± 0.1 | CCCNNC(=O)C=Cc1ccc(CNCc2ccccn2)cc1 [Compound 25d, N′-Propyl-3-(4-(((pyridin-2-ylmethyl)amino)methyl)phenyl)acrylohydrazide]

More lines, now with the values behind:

Row | Compound | IC50 [1] [µM] | inhibition at 0.01 µM [1] [%] | inhibition at 0.1 µM [1] [%] | IC50 [2] [µM] | IC50 [3] [µM] | inhibition at 0.01 µM [3] [%] | inhibition at 0.1 µM [3] [%]
14 | CCCNNC(=O)c1ccc(C=CC(=O)NCCc2ccccc2)cc1 [Compound 9l, N-Phenethyl-3-(4-(2-propylhydrazine-1-carbonyl)phenyl)acrylamide] | 0.0374 ± 0.0058 | 36.5 ± 2.1 | 74.5 ± 0.3 | 0.116 ± 0.0114 | 0.006 ± 0.0017 | 78.1 ± 0.1 | 87.2 ± 2.6
15 | CCCNNC(=O)C=Cc1ccc(C(=O)NCCc2ccccc2)cc1 [Compound 9j, 4-(3-Oxo-3-(2-propylhydrazineyl)prop-1-en-1-yl)-N-phenethylbenzamide] | 0.0358 ± 0.0036 | 32.8 ± 0.1 | 76.7 ± 0.3 | 0.0694 ± 0.0034 |  |  | 
16 | CCCNNC(=O)c1ccc(C(=O)NCCc2ccccc2)cc1 [Compound 9g, N-Phenethyl-4-(2-propylhydrazine-1-carbonyl)benzamide] |  | 23.5 ± 2 | 30.1 ± 2.1 |  |  | 11.2 ± 8 | 50.6 ± 5.4
17 | CCCNNC(=O)CCCCCCC(=O)NCCc1ccccc1 [Compound 9e, 8-Oxo-N-phenethyl-8-(2-propylhydrazineyl)octanamide] |  | 12 ± 0.9 | 65.6 ± 0.1 |  |  | 38.8 ± 3 | 85.5 ± 0.6
18 | CCCNNC(=O)CCCCCC(=O)NCCc1ccccc1 [Compound 9d, 7-Oxo-N-phenethyl-7-(2-propylhydrazineyl)heptanamide] |  | 5.58 ± 2.39 | 52 ± 2.86 |  |  | 21.2 ± 1.5 | 76.82 ± 0.47
19 | CCCNNC(=O)CCCC(=O)NCCc1ccccc1 [Compound 9b, 5-Oxo-N-phenethyl-5-(2-propylhydrazineyl)pentanamide] |  | -9.2 ± 1.4 | 3.1 ± 1.1 |  |  | 11.5 ± 0.7 | 53.7
20 | CCCNNC(=O)c1ccc(CCC(=O)NCCc2ccccc2)cc1 [Compound 9m, N-Phenethyl-3-(4-(2-propylhydrazine-1-carbonyl)phenyl)propanamide] |  | 21.2 ± 0.9 | 67.3 ± 2.8 |  |  | 27.2 ± 2.7 | 80.7 ± 0.7
21 | CCCNNC(=O)CCC(=O)NCCc1ccccc1 [Compound 9a, 4-Oxo-N-phenethyl-4-(2-propylhydrazineyl)butanamide] |  | 2.2 ± 2.3 | 0.3 ± 1.7 |  |  | -0.6 ± 1.9 | 11.1 ± 0.5
22 | CCCNNC(=O)Cc1ccc(C(=O)NCCc2ccccc2)cc1 [Compound 9i, 4-(2-Oxo-2-(2-propylhydrazineyl)ethyl)-N-phenethylbenzamide] |  | 12.5 ± 0.2 | 16.4 ± 1.2 |  |  | -0.8 ± 4.2 | -3.1 ± 3.4
23 | CCCNNC(=O)C=Cc1ccc(CN2C(=O)c3ccccc3C2=O)cc1 [Compound 30, 3-(4-((1,3-Dioxoisoindolin-2-yl)methyl)phenyl)-N′-propylacrylohydrazide] | 0.136 ± 0.0206 | 5.1 ± 1.3 | 28.4 ± 1.1 | 0.6519 ± 0.0034 | 0.0278 ± 0.0018 | 53.9 ± 0.4 | 85.1 ± 0.1
24 | CCCNNC(=O)CCc1ccc(C(=O)NCCc2ccccc2)cc1 [Compound 9k, 4-(3-Oxo-3-(2-propylhydrazineyl)propyl)-N-phenethylbenzamide] | 0.122 ± 0.0186 | 23.1 ± 2.1 | 67.9 ± 1.4 | 0.374 ± 0.0217 |  |  | 
25 | CCCNNC(=O)c1ccc(CC(=O)NCCc2ccccc2)cc1 [Compound 9h, N-Phenethyl-2-(4-(2-propylhydrazine-1-carbonyl)phenyl)acetamide] |  | 5.61 ± 1.6 | 10.1 ± 0.7 |  |  | -4.61 ± 13.6 | -5.9 ± 0.6
26 | CCCNNC(=O)CCCCCCCC(=O)NCCc1ccccc1 [Compound 9f, 9-Oxo-N-phenethyl-9-(2-propylhydrazineyl)nonanamide] |  | 15.9 ± 1.6 | 57.1 ± 0.7 |  |  | 19.6 ± 8 | 79.9 ± 0.8
27 | CCCNNC(=O)CCCCC(=O)NCCc1ccccc1 [Compound 9c, 6-Oxo-N-phenethyl-6-(2-propylhydrazineyl)hexanamide] |  | -6 ± 1.2 | 27.5 ± 0.6 |  |  | 18.2 ± 2.9 | 61.9 ± 0.7
